Assay results as given in patent publication US20140031227A1, “HERBICIDAL COMPOSITIONS COMPRISING 4-AMINO-3-CHLORO-5-FLUORO-6-(4-CHLORO-2-FLUORO-3-METHOXYPHENYL) PYRIDINE-2-CARBOXYLIC ACID OR A DERIVATIVE THEREOF AND GLYPHOSATE OR GLUFOSINATE” (DOW AGROSCIENCES LLC, priority 2012, published 2014).
Structures can show the parent of a compound that is named as a salt.

Key:
Assay type in all cases: in vivo
[1] = test system: CYPDI (Cyperus difformis L., smallflower umbrella sedge); test: Example I postemergence foliar-applied mixtures, direct seeded rice weeds, greenhouse: CYPDI
Experimental: Seeds or nutlets of the desired test plant species were planted in a soil matrix prepared by mixing a loam or sandy loam soil (e.g., 28.6 percent silt, 18.8 percent clay, and 52.6 percent sand, with a pH of about 5.8 and an organic matter content of about 1.8 percent) and calcareous grit in an 80 to 20 ratio. The soil matrix was contained in plastic pots with a volume of 1 quart and a surface area of 83.6 square centimeters (cm^2). […] The plants were grown for 8-22 days in a greenhouse with an approximate 14 hr photoperiod which was maintained at about 29° C. during the day and 26° C. during the night. Nutrients (Peters Excel® 15-5-15 5-Ca 2-Mg and iron chelate) were applied in the irrigation solution as needed and water was added on a regular basis. Supplemental lighting was provided with overhead metal halide 1000-Watt lamps as necessary. The plants were employed for testing when they reached the first through fourth true leaf stage.
(§1) Treatments consisted of the acid or esters of 4-amino-3-chloro-5-fluoro-6-(4-chloro-2-fluoro-3-methoxy-phenyl)pyridine-2-carboxylic acid (Compound A), each formulated as an SC (suspension concentrate), and various herbicidal components alone and in combination. Forms of compound A were applied on an acid equivalent basis.
(§2) For treatments comprised of formulated compounds, measured amounts of compounds were placed individually in 25 mL glass vials and diluted in a volume of 1.25% (v/v) Agri-Dex® crop oil concentrated to obtain 12× stock solutions. […] Application solutions were prepared by adding an appropriate amount of each stock solution (e.g., 1 mL) and diluted to the appropriate final concentrations with the addition of 10 mL of an aqueous mixture of 1.25% (v/v) crop oil concentrate so that the final spray solutions contained 1.25+/−0.05% (v/v) crop oil concentrate.
All stock solutions and applications solutions were visually inspected for compound compatibility prior to application. Spray solutions were applied to the plant material with an overhead Mandel track sprayer equipped with a 8002E nozzles calibrated to deliver 187 L/ha over an application area of 0.503 m^2 at a spray height of 18 to 20 inches (46 to 50 cm) above average plant canopy height. Control plants were sprayed in the same manner with the solvent blank.
The treated plants and control plants were placed in a greenhouse as described above and watered by sub-irrigation to prevent wash-off of the test compounds. After approximately 3 weeks, the condition of the test plants as compared with that of the untreated plants was determined visually and scored on a scale of 0 to 100 percent where 0 corresponds to no injury or growth inhibition and 100 corresponds to complete kill. […]

[2] = test system: AMARE (Amaranthus retroflexus L., redroot pigweed); test: Example IV postemergence foliar-applied mixtures, general weed control, greenhouse: AMARE (Table 17, species inferred from b27)
Experimental: Seeds or nutlets of the desired test plant species were planted in Sun Gro Metro-Mix® 360 planting mixture, which typically has a pH of 6.0 to 6.8 and an organic matter content of about 30 percent, in plastic pots with a surface area of 84.6 square centimeters (cm^2). […] The plants were grown for 7-31 days (d) in a greenhouse with an approximate 15 hour (h) photoperiod which was maintained at about 23-29° C. during the day and 22-28° C. during the night. Nutrients (Peters Excel® 15-5-15 5-Ca 2-Mg) and water were added on a regular basis and supplemental lighting was provided with overhead metal halide 1000-Watt lamps as necessary. The plants were employed for testing when they reached the first, second, or third true leaf stage.
as §1, with “the benzyl ester” for “esters”, “SC,” for “SC (suspension concentrate),”
Other herbicidal components were applied on an acid equivalent or active ingredient basis and included the 5-enolpyruvylshikimate-3-phosphate synthase (EPSPS)-inhibiting herbicide, glyphosate dimethylamine salt, formulated as Durango DMA® and the glutamine synthase (GS)-inhibiting herbicide, glufosinate ammonium, formulated as Ignite® 280.
as §2, with “(v/v) Agri-dex” for “(v/v) Agri-Dex®”, “solution (typically” for “solution (e.g.,”, “(v/v) Agri-dex” for “(v/v)”, “contained 1.25%” for “contained 1.25+/−0.05%”
All stock solutions and applications solutions were visually inspected for compound compatibility prior to application. Compound requirements are based upon a 12 mL application volume at a rate of 187 liters per hectare (L/ha). Formulated compounds were applied to the plant material with an overhead Mandel track sprayer equipped with 8002E nozzles calibrated to deliver 187 L/ha over an application area of 0.503 square meters (m^2) at a spray height of 18 to 20 inches (46 to 50 cm) above the average plant canopy height. Control plants were sprayed in the same manner with the solvent blank.
(§3) The treated plants and control plants were placed in a greenhouse as described above and watered by sub-irrigation to prevent wash-off of the test compounds. After approximately 3 weeks, the condition of the test plants as compared with that of the untreated plants was determined visually and scored on a scale of 0 to 100 percent where 0 corresponds to no injury or growth inhibition and 100 corresponds to complete kill.
(§4) Colby's equation was used to determine the herbicidal effects expected from the mixtures (Colby, S. R. 1967. Calculation of the synergistic and antagonistic response of herbicide combinations. Weeds 15:20-22.) .

[3] = test system: IPOHE (Ipomoea hederacea Jacq., morning glory, ivyleaf); test: Example IV postemergence foliar-applied mixtures, general weed control, greenhouse: IPOHE
Experimental: as §3, §4
The following equation was used to calculate the expected activity of mixtures containing two active ingredients, A and B:
A=observed efficacy of active ingredient A at the same concentration as used in the mixture.
B=observed efficacy of active ingredient B at the same concentration as used in the mixture.

[4] = Compound A Benzyl Ester 2 gae/ha alone
[5] = Compound A Benzyl Ester 4 gae/ha alone
[6] = Compound A Benzyl Ester 8 gae/ha alone
[7] = Compound A Benzyl Ester 16 gae/ha alone
[8] = Compound A Benzyl Ester 32 gae/ha alone
[9] = Glufosinate ammonium salt 225 gai/ha alone

COc1c(Cl)ccc(-c2nc(C(=O)O)c(Cl)c(N)c2F)c1F [Compound A Acid, 4-amino-3-chloro-6-(4-chloro-2-fluoro-3-methoxyphenyl)-5-fluoropyridine-2-carboxylic acid]
Visual Weed Control (%) - 21 DAA CYPDI Obs ([1]; Compound A Acid alone, 4.38 gae/ha): 50%
Visual Weed Control (%) - 21 DAA CYPDI Obs ([1]; Compound A Acid alone, 8.75 gae/ha): 85%

COc1c(Cl)ccc(-c2nc(C(=O)OCc3ccccc3)c(Cl)c(N)c2F)c1F [Compound A Benzyl Ester]
Visual Weed Control (%) - 18 DAA AMARE Obs [2, 4]: 50%
Visual Weed Control (%) - 18 DAA AMARE Obs [2, 5]: 60%
Visual Weed Control (%) - 18 DAA AMARE Obs [2, 6]: 85%
Visual Weed Control (%) - 18 DAA AMARE Obs [2, 7]: 85%
Visual Weed Control (%) - 18 DAA AMARE Obs [2, 8]: 100%
Visual Weed Control (%) - 18 DAA IPOHE Obs [3, 4]: 15%
Visual Weed Control (%) - 18 DAA IPOHE Obs [3, 5]: 25%
Visual Weed Control (%) - 18 DAA IPOHE Obs [3, 6]: 25%
Visual Weed Control (%) - 18 DAA IPOHE Obs [3, 7]: 35%
Visual Weed Control (%) - 18 DAA IPOHE Obs [3, 8]: 45%

CP(=O)(O)CCC(N)C(=O)O (stereo not drawn) [Glufosinate ammonium salt, 2-amino-4-(hydroxymethylphosphinyl)butanoic acid monoammonium salt, reference compound]
Visual Weed Control (%) - 21 DAA CYPDI Obs ([1]; glufosinate ammonium alone, 135.5 gae/ha): 0%
Visual Weed Control (%) - 21 DAA CYPDI Obs ([1]; glufosinate ammonium alone, 271 gae/ha): 0%
Visual Weed Control (%) - 18 DAA AMARE Obs [2, 9]: 50%
Visual Weed Control (%) - 18 DAA IPOHE Obs ([3]; Glufosinate ammonium salt 112.5 gai/ha alone): 10%
Visual Weed Control (%) - 18 DAA IPOHE Obs [3, 9]: 20%
Visual Weed Control (%) - 18 DAA IPOHE Obs ([3]; Glufosinate ammonium salt 450 gai/ha alone): 50%
